# PMC6305410, “High-Throughput Screening for Bacterial Glycosyltransferase Inhibitors” (Frontiers in Cellular and Infection Microbiology, 2018)
# Target: T1, NleB1 (Escherichia coli, UniProt Q8XBX8)
# T1 construct: GST-EHEC-NleB1 in pET42a (GST/His tagged), expressed in E. coli BL21 (DE3), nickel purified; some tag cleavage noted
# Conditions: inhibitor; for % NleB1 inhibition (µM compound) / 10: 10 µM; for % NleB1 inhibition (µM compound) / 20: 20 µM; for % NleB1 inhibition (µM compound) / 40: 40 µM; for % NleB1 inhibition (µM compound) / 80: 80 µM; for % NleB1 inhibition (µM compound) / 160: 160 µM
SMILES,% NleB1 inhibition (µM compound) / 10 [%],% NleB1 inhibition (µM compound) / 20 [%],% NleB1 inhibition (µM compound) / 40 [%],% NleB1 inhibition (µM compound) / 80 [%],% NleB1 inhibition (µM compound) / 160 [%]
CCCCCC(=O)N1C[C@H](n2cc(COC(=O)c3ccccc3)nn2)[C@@H](O)C[C@@H]1c1ccc(Cl)cc1 [KUC105040N],9.1,14.5,18.9,40.4,50.7
COCOCCn1cc(CN2CCS(=O)(=O)N(Cc3ccc(-c4ccc(OC)nc4)cc3)C(C(C)C)C2=O)nn1 (centres unmarked) [KUC105133N],30.4,40.4,45.5,62.2,75.8
COc1ccc(-c2ccc(CN3C(C(C)C)C(=O)N(Cc4cn(CCC5OCCO5)nn4)CCS3(=O)=O)cc2)cn1 (centres unmarked) [KUC105137N],13.7,25.7,41.5,64.5,79.7
COCOCCn1cc(CN2CCS(=O)(=O)N(Cc3ccc(-c4ccc(F)nc4)cc3)C(CC(C)C)C2=O)nn1 (centres unmarked) [KUC105149N],34.4,38.8,42.6,55.9,69.5
CC(C)CC1C(=O)N(Cc2cn(CCC3OCCCO3)nn2)CCS(=O)(=O)N1Cc1ccc(-c2ccc(F)nc2)cc1 (centres unmarked) [KUC105151N],0.6,15.1,31.9,50.8,53.0
CCCCN1CC(COCc2ccccc2)Oc2cccc(Oc3ccc(F)cc3OC)c2S1(=O)=O (centres unmarked) [KUC106008N],21.4,22.4,20.7,31.6,55.9
O=C(c1ccc([N+](=O)[O-])cc1)N1[C@H](COCc2ccccc2)C=CS1(=O)=O [KUC107029N],30.6,41.5,43.4,48.6,43.4
CN(C)CCN1CCN(C2CN(Cc3cn(Cc4ccc(F)cc4)nn3)S(=O)(=O)C2)CC1 (centres unmarked) [KUC108117N],5.6,23.7,25.1,21.8,21.8
CN1CCC(N2CCN(C3CN(Cc4cn(Cc5cccc(Cl)c5)nn4)S(=O)(=O)C3)CC2)CC1 (centres unmarked) [KUC108133N],4.1,18.2,22.3,18.0,18.2
O=S1(=O)CC(N2CCN(Cc3ccccc3F)CC2)CN1Cc1cn(Cc2cccc(Cl)c2)nn1 (centres unmarked) [KUC108236N],13.5,26.7,13.1,12.7,18.4
C[C@H](c1ccccc1)N1C[C@@H](COCc2ccccc2)Oc2cc(N3CC[C@@H](O)C3)ccc2S1(=O)=O [KUC108511N],33.8,33.0,29.9,49.8,63.7
Cc1ccc2c(c1)C1CS(=O)(=O)N(C3CCCC3)C(=O)N1C2 (centres unmarked) [KUC109525N],26.3,31.5,20.9,19.5,29.3
COC(=O)[C@H](C(C)C)N1Cc2nnn(Cc3ccccc3)c2-c2ccccc2S1(=O)=O [KUC110604N],4.8,15.1,17.9,21.1,17.9
C[C@H]1CC[C@]2(CCC(=O)N2CCCOC(=O)c2ccccc2)CC1 [KUC110967N],45.2,53.8,62.0,71.4,78.5
Cc1ccc([C@H]2CC[C@]3(CCC(=O)N3CCOC(=O)Nc3cccc(C#N)c3)CC2)cc1 [KUC111012N],17.3,25.1,22.4,20.7,20.5
C[C@@H]1CCCN1c1ccc2c(c1)O[C@@H]1CCN(C1)S2(=O)=O [KUC111139N],32.7,34.1,35.7,38.7,40.7
O=C(c1ccc(F)cc1)N1CCCC2(CC(c3cccc(Cl)c3)=CO2)C1 (centres unmarked) [KUC111570N],3.2,3.8,5.2,24.2,42.6
CCC[C@H]1[C@@H](OC(=O)NCc2ccc(OC)cc2)CC[C@@]23CCCN2C(=O)CCC[C@@H]13 [KUC112136N],15.7,22.0,20.8,28.5,30.5
O=C(Oc1ccc([N+](=O)[O-])cc1)O[C@H]1CC[C@@]23CCCN2C(=O)CCC[C@H]3[C@H]1Cc1ccccc1 [KUC112275N],2.6,5.6,11.0,24.2,34.9
